Reference: publication PMC5374206, “Anti-bacterial and Anti-biofilm Evaluation of Thiazolopyrimidinone Derivatives Targeting the Histidine Kinase YycG Protein of Staphylococcus epidermidis” (Frontiers in Microbiology, 2017)
Converted amounts (≈) assume the structure as drawn.

Key:
[1] = system: S. epidermidis ATCC 35984; experiment: Time-kill assay against fast-growing S. epidermidis; assay type: cell-based, Staphylococcus epidermidis; settings: 4 × MIC
Protocol: Suspensions of S. epidermidis (1 × 10^7 CFU/mL) were prepared and separately treated with the derivatives of compound 5 or vancomycin at concentrations of 4 × MIC in fresh MHB. Time-kill experiments were performed at 37°C with shaking at 220 rpm under aerobic conditions. Aliquots (1 mL) were removed from the culture medium at different time points (0, 1, 3, 5, 8, and 24 h), serially diluted and 100 μL of each of the dilutions plated out onto tryptic soy agar. After incubating at 37°C for 24 h, emergent bacterial colonies were counted, and the activity of the derivatives against fast-growing S. epidermidis cells was determined by plotting log10 colony counts (CFU/mL) against time. Bactericidal activity was defined as a 3-log10 decrease in CFU/mL. This assay was performed in triplicate and similar results were obtained.

[2] = system: S. epidermidis ATCC 35984 mature biofilms; parameters: method as in Liu et al., 2014; settings: vancomycin 128 μg/mL; ref Liu et al., 2014; cited from earlier work
YycG′ protein = target: T1, YycG′ protein (Staphylococcus epidermidis, UniProt Q5HK19); experiment: Inhibition of YycG′ autophosphorylation (Kinase-Glo Luminescent Kinase Assay); assay type: biochemical; settings: 4 μM ATP; for inhibition of the enzymatic activity of YycG′ protein: 100 μM derivative, 2 μg YycG′ protein; for IC50: Kinase-Glo, 2 μg YycG′, read-out: IC50 (inhibition of autophosphorylation of recombinant YycG′)
T1 construct: made in house; host or cells: E. coli BL21(DE3)
T1 sequence (Q5HK19 384-602 limits assumed): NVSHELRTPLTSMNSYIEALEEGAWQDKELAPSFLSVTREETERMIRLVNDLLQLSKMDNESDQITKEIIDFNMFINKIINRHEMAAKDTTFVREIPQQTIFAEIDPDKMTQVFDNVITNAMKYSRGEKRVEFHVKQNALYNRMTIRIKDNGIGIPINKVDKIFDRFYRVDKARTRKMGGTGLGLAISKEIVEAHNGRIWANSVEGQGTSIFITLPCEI
Protocol: The construction of the recombinant plasmid pET28a-YycG′ (containing the HATPase_c and HisKA domains of YycG) has been previously described (Liu et al., [2014]). After being used to transform E. coli strain BL21(DE3), this recombinant plasmid was induced to express YycG′ protein by 0.4 mM isopropyl-1-thio-β-D-galactopyranoside at 21°C for 12 h. Then, the bacterial cells were disrupted by sonication and centrifuged, the supernatant was purified by Ni–NTA agarose (Qiagen, Los Angeles, CA, USA). The inhibitory activities of the compound 5 derivatives on the ATPase activity of the YycG′ protein were measured using the Kinase-Glo™ Luminescent Kinase Assay (Promega, Madison, WI, USA). Briefly, 2 μg purified YycG′ protein was pre-incubated with a series of dilutions of the derivatives in reaction buffer [40 mM Tris (pH 7.5), 20 mM MgCl2 and 0.1 mg/ml BSA] at room temperature for 30 min, 4 μM ATP was added and incubated for 30 min at room temperature, then Kinase-Glo™ Reagent was added to detect the remaining amount of ATP, as reflected by luminescence intensity (RLU). In parallel, YycG′ protein with no addition of the derivatives was used as the control and ATP only was used as a blank. The rate of inhibition of protein phosphorylation (Rp) by the derivatives was calculated by the following equation: Rp = RLU(YycG^′+derivative+ATP+Kinase−Glo™)−RLU(YycG^′+ATP+Kinase−Glo™)/RLU(ATP+Kinase−Glo™)−RLU(YycG^′+ATP+Kinase−Glo™) × 100 IC50 (the concentration resulting in 50% inhibition of YycG′ protein autophosphorylation) was obtained by using Origin v7.0 software (OriginLab, Northampton, USA).

[3] = system: S. epidermidis ATCC 35984; experiment: MIC and MBC tube-dilution assay; assay type: cell-based; settings: Staphylococcus epidermidis; for MBC: ATCC35984, 99.9% reduction of inoculum; for MIC: ATCC35984, MHB, 16–20 h
Protocol: (§1) The MIC assays of the derivatives of compound 5 against S. epidermidis, S. aureus, MRSA and E. coli were performed by using the methods described previously by Wiegand et al. ([2008]). In brief, two-fold serial dilutions of the derivatives were prepared in tubes containing 4 mL MHB medium, yielding final concentrations from 200 to 0.78 μM. Bacterial cultures were grown overnight and adjusted so that the bacterial suspension turbidity was equivalent to a 0.5 McFarland standard (~1 × 10^8 CFU/mL) and further diluted to 1:200 into MHB medium. The contents in the tubes were mixed thoroughly and incubated at 37°C with shaking at 220 rpm for 16–20 h. The MIC endpoint was defined as the lowest concentration at which there was no visible growth in the tubes. The MBC values were assessed by plating 100 μL samples from each negative (no visible bacterial growth) culture tube from the MIC assays onto blank MHB agar plates. After incubation at 37°C for 24 h, the bacterial colonies on the plates were counted. The MBC was the concentration at which a 99.9% reduction of the original inoculum was observed (Pridmore et al., [2011]). In this assay, all the experiments were performed three times.

S. aureus ATCC 49230 = experiment: MIC tube-dilution assay; assay type: cell-based; settings: Staphylococcus aureus, ATCC49230
Protocol: as §1

[4] = system: S. epidermidis ATCC 12228; experiment: MIC tube-dilution assay; assay type: cell-based; settings: Staphylococcus epidermidis, ATCC12228
Protocol: as §1

E. coli ATCC 25922 = experiment: MIC tube-dilution assay; assay type: cell-based, Escherichia coli; settings: E. coli ATCC29522 (head), highest concentration used 200 μM
Protocol: as §1

[5] = system: S. epidermidis ATCC 35984 mature biofilms; experiment: Cell viability in mature (24 h) biofilms by CLSM with Live/Dead staining; assay type: cell-based, Staphylococcus epidermidis; settings: 4 × MIC, 16 h, 24 h mature biofilm; for PI fluorescence quantity (dead cells) / SYTO9 fluorescence quantity (viable cells): Image J
Protocol: The effect of the derivatives on cell viability in mature biofilms (24 h old) was determined using the Live/Dead Bacterial Viability method (Live/Dead BacLight, Molecular Probes, USA). […] The mature biofilms were stained with SYTO 9 and propidium iodide at room temperature for 15 min, following gentle washing of the dishes with normal saline, and were observed under a Leica TCS SP5 CLSM with a 63 × 1.4-NA oil-immersion objective. Further, image analysis was performed using IMARIS 7.0.0 software (Bitplane). The fluorescence quantities of biofilm were determined using Image J software. This assay was performed in triplicate and similar results were obtained.

Cytotoxicity MTT assay = assay type: cell-based; settings: African green monkey, Vero cells, highest concentration tested 200 μM
Protocol: A Cell Proliferation Kit I (MTT; Roche, Indianapolis, USA) was used to detect the cytotoxicity of the derivatives against Vero cells. Vero cells were added to 96-well microtiter plates at a concentration of 5 × 10^4 cells/well in 100 μL of culture medium. After 24 h, culture medium was replaced by 100 μL serial dilutions of the derivatives (0.78–100 μM) and the cells were incubated for 4 h in an atmosphere of 5% CO2, then 10 μL of the MTT stock solution was added to each well and the plate returned to the 37°C incubator for 4 h. Subsequent to the incubation, the purple formazan salts were dissolved in DMSO, and the absorbance of each well was measured at wavelengths of 595 nm (test) and 655 nm (reference). Cells treated with the solvent (0.1% DMSO) were used as a blank control. The concentration of the derivatives that produced a 50% cytotoxicity effect on Vero cells (CC50) was calculated using Origin v8.0 software (Origin Lab, Northampton, USA).

[6] = Erythrocyte hemolysis assay; assay type: cell-based; settings: human, erythrocytes (5% suspension), 37°C; for hemolysis at 1 h, 200 µM: at 200 μM; for hemolysis at 1 h: at MIC (against S epidermidis ATCC 35984)
Protocol: Hemolytic activities of the derivatives were measured on healthy human erythrocytes. A pure suspension of erythrocytes was obtained by washing a blood sample with sterile 0.9% NaCl saline solution. Erythrocytes were resuspended in normal saline to give a 5% solution, then treated with MIC, 4 × MIC or 200 μM of the derivatives for 1 h at 37°C in 96-well microtiter plates. After the incubation and centrifugation at 1,000 g for 10 min, supernatants were transferred to another sterile plate and the absorbance at 570 nm was measured on a spectrophotometric microplate reader. A positive control (100% hemolysis) and a negative control (0% hemolysis) were achieved by incubating with 1% Triton-X 100 and 0.1% DMSO, respectively. Each assay was performed in triplicate and repeated three times.

[7] = Escherichia coli, ATCC 25922 / ATCC 29522

Compound	time required to achieve a bactericidal effect ([1]; bactericidal = 3-log10 decrease in CFU/mL)	reduction in CFU/mL ([1]; within/after 1 h, inoculum ~1 × 10^7 CFU/mL, MHB)	reduction of living cells in mature biofilm [2]	inhibition of the enzymatic activity of YycG′ protein (YycG′ protein)	IC50 (YycG′ protein)	MBC [3]	MIC [3]	MIC (S. aureus ATCC 49230)	MIC [4]	MIC (E. coli ATCC 25922)	MIC (E. coli ATCC 25922; [7])	PI/Total (reduction of the proportion of viable cells in mature biofilms) [5]	PI fluorescence quantity (dead cells) [5]	SYTO9 fluorescence quantity (viable cells) [5]	CC50 at 4 h (Cytotoxicity MTT assay)	hemolysis at 1 h, 200 µM [6]	hemolysis at 1 h [6]
CN[C@H](CC(C)C)C(=O)N[C@H]1C(=O)N[C@@H](CC(N)=O)C(=O)N[C@H]2C(=O)N[C@H]3C(=O)N[C@H](C(=O)N[C@H](C(=O)O)c4cc(O)cc(O)c4-c4cc3ccc4O)[C@H](O)c3ccc(c(Cl)c3)Oc3cc2cc(c3O[C@@H]2O[C@H](CO)[C@@H](O)[C@H](O)[C@H]2O[C@H]2C[C@](C)(N)[C@H](O)[C@H](C)O2)Oc2ccc(cc2Cl)[C@H]1O [vancomycin, reference compound]	> 5 h	~ 1 log	11.4%	–	–	–	–	–	–	–	–	–	–	–	–	–	–
COc1ccc(C2C=C(c3ccccc3)N=c3sc(=Cc4ccc(-c5cccc(C(=O)O)c5)o4)c(=O)n32)cc1 (centres unmarked) [H5-24, 3-{5-[5-(4-methoxy-phenyl)-3-oxo-7-phenyl-5H-thiazolo[3,2-a]pyrimidin-2-ylidenemethyl]-furan-2-yl}-benzoic acid]	–	–	–	49.92%	82.2 µM	50 µM (≈ 26.7 µg/mL)	1.56 µM (≈ 0.834 µg/mL)	1.56 µM (≈ 0.834 µg/mL)	1.56 µM (≈ 0.834 µg/mL)	>200 µM	> 200 µM	77.5%	43.242 ± 5.65	12.554 ± 4.23	> 200 µM	0.32 ± 0.05%	0.17 ± 0.11%
CCOC(=O)C1=C(c2ccccc2)N=c2s/c(=C\c3ccc(-c4cccc(C(=O)O)c4)o3)c(=O)n2C1c1ccc2c(c1)OCO2 (centres unmarked) [Compound 5, {5-benzo [1,3]dioxol-5-yl-2-[5-(3-carboxy-phenyl)-furan-2-ylmethylene]-3-oxo-7-phenyl-2,3-dihydro-5H-thiazolo [3,2-a]pyrimidine-6-carboxylic} acid ethyl ester]	–	–	–	–	–	25 µM (≈ 15.5 µg/mL)	6.25 µM (≈ 3.88 µg/mL)	6.25 µM (≈ 3.88 µg/mL)	6.25 µM (≈ 3.88 µg/mL)	–	> 200 µM	–	–	–	> 200 µM	0.51 ± 0.06%	0.31 ± 0.16%
O=C(O)c1cccc(-c2ccc(C=c3sc4n(c3=O)C(c3ccc(Cl)cc3)C=C(c3ccccc3)N=4)o2)c1 (centres unmarked) [H5-25, 3-{5-[5-(4-chloro-phenyl)-3-oxo-7-phenyl-5H-thiazolo [3,2-a]pyrimidin-2-ylidenemethyl]-furan-2-yl}-benzoic acid]	–	–	–	51.42%	80.2 µM	50 µM (≈ 27 µg/mL)	1.56 µM (≈ 0.841 µg/mL)	1.56 µM (≈ 0.841 µg/mL)	1.56 µM (≈ 0.841 µg/mL)	>200 µM	> 200 µM	43.80%	47.687 ± 4.77	61.188 ± 5.49	> 200 µM	0.39 ± 0.09%	0.27 ± 0.01%
CCOC(=O)C1=C(c2ccccc2)N=c2sc(=Cc3ccc(-c4cccc(C(=O)O)c4)o3)c(=O)n2C1c1ccc(Cl)cc1 (centres unmarked) [H5-23, 2-{5-(3-carboxy-phenyl)-furan-2-ylmethylene]-5-(4-chloro-phenyl)-3-oxo-7-phenyl-2,3-di-hydro-5H-thiazolo[3,2-a]pyrimidine-6-carboxylic acid ethyl ester]	–	–	–	64.78%	77.2 µM	25 µM (≈ 15.3 µg/mL)	1.56 µM (≈ 0.953 µg/mL)	1.56 µM (≈ 0.953 µg/mL)	1.56 µM (≈ 0.953 µg/mL)	>200 µM	> 200 µM	85.7%	61.928 ± 5.05	10.333 ± 4.39	> 200 µM	0.27 ± 0.01%	0.27 ± 0.35%
